# In US20240383953A1, “NOVEL NAN[…] NANOG PRION-LIKE REPEATS” (BAYLOR COLLEGE OF MEDICINE, priority 2021, published 2024):
# Where two headings read alike, the source gives them in different places.
# Legend:
# [1] = system: Gata6-AF488 and Gata6-AF647 DNA; assay: Intermolecular diffusion smFRET DNA bridging; type: binding; conditions: 250 nM NANOG WT
# Experimental: (§1) FIGS. 6A-6G provide data related to intermolecular DNA bridging through NANOG assemblies. […] The peak at EFRET ˜0 corresponds to AF488-conjugated unbound/bound DNA. FIGS. 6E1-4 show representative cross-correlation FCCS curves of Gata6-AF488 and Gata6-AF647 with various concentrations of WT ((i) 0 nM; (ii) 63 nM; (iii) 875 nM) and W8A mutant ((iv) 875 nM). […] Nad and diffusion coefficients were derived and calculated from FCCS fits (Methods). […] Through prion-like assembly, NANOG can initiate intragenomic (promoter-enhancer) contacts, as well as connecting distant intergenomic loci to form superenhancer clusters with other TFs and coactivators (green/yellow).
# To test the DNA bridging hypothesis, Applicant performed single molecule FRET (smFRET) diffusion experiments. Intermolecular diffusion smFRET is challenging due to low chance encounters at dilute pM concentrations. Gata6 DNAs were independently labeled with AF488 or AF647. […] However, in the presence of 250 nM NANOG WT.
# [2] = system: Gata6-AF488 and Gata6-AF647 DNA; assay: FCCS DNA bridging by NANOG; type: binding
# Experimental: as §1
# To further validate NANOG-dependent DNA bridging, Applicant resorted to fluorescence cross-correlation technique (FCCS). Binding of individual DNAs (differentially labeled with AF488 and AF647) to form a complex would result in correlated fluorescence signals.
# FCCS experiments with various NANOG concentrations confirmed cross-correlation with as little as ˜30 nM WT NANOG (FIG. 6F). The increase in cross-correlated particles coincided with a decrease in molecular complex diffusion coefficient (bright lower line, FIG. 6F). Without being bound by theory, the decrease in cross-correlated particles at high NANOG concentrations may reflect competition for DNA with excess NANOG.
# [3] = target: dsDNA GATA6-AF488/GATA6-AF647; assay: fEMSA with dsDNA; type: binding
# Experimental: (§2) Basic residues, 3 Arg and 2 Lys, were incorporated for nucleic acid recognition. […] Similar results were obtained from two independent experiments. FIG. 8C (left panels) show photon bursts distribution of dsDNAs alone (GATA6-AF488 and GATA6-AF647; top) or with 7.5 μM (0.03 mg/mL) 1-4wRK peptide (bottom). Middle panels of FIG. 8C show FCCS curves for corresponding photon fluctuations shown in the left panels. […] Similar results were obtained from three independent experiments. […] Similar results were obtained from three independent experiments. […] Error bars were calculated from three independent measurements. […] Similar results were obtained from two independent experiments.
# (§3) ThT binding to amyloid β-sheet emits maximally at ˜490 nm. Similar results were obtained from 2 independent experiments. […] Similar results were obtained from 2 independent experiments.
# (§4) Applicant observed nucleic acid interactions by fluorescence electrophoretic mobility shift assays (fEMSA). […] Moreover, the 1-4wRK peptide was also potent in recognizing single stranded DNA (ssDNA (TG)6) and RNA (ssRNA (UUAGGG)4-AF488/AF594).
# (§5) By EMSA, almost all DNAs were bound at […] or 0.03 mg/mL 1-3wRRK. […] This was further corroborated by fluorescence polarization measurements.
# [4] = system: ssDNA (TG)6 and ssRNA (UUAGGG)4-AF488/AF594; assay: fEMSA with single stranded nucleic acids; type: binding; conditions: immobilized in the gel wells
# Experimental: as §2, §4
# [5] = system: GATA6-AF488 and GATA6-AF647; assay: FCCS DNA bridging by peptides; type: binding
# Experimental: as §2
# ThT binding to amyloid β-sheet emits maximally at ˜490 nm. Similar results were obtained from 2 independent experiments. […]
# Applicant also tested the minipeptides' ability to bring together independent DNA molecules in solution. Using Fluorescence Cross-Correlation Spectroscopy (FCCS), Applicant observed an absence of cross-correlation between differentially fluorescently labeled DNAs (GATA6-AF488 and GATA6-AF647) without the peptide. […]
# The significant 1-3wRK DNA-bridging competency was further confirmed by FCCS titration data and burst analysis, where Applicant observed cross-correlation even at ˜30 nM 1-3wRRK. […] Applicant demarcated the LLPS regimes using turbidity assay (UV absorbance at 350 nm; FIG. 8J). […]
# [6] = system: fluorescent proteins h6GeGFP and h6GmCherry; assay: Co-partitioning with fluorescent proteins; conditions: h6GeGFP and h6GmCherry 5 μM
# Experimental: as §2
# Applicant used burst analysis to quantify sizes of the oligomeric species. The average fluctuations were assumed to represent monomeric species, and any degree of deviations from average were characterized as the oligomeric states. Applicant observed numerous heterogeneous oligomeric states that increased in molecular sizes with increasing peptide concentration (FIGS. 8D-8E). Because NANOG is also known as a ‘molecular hub’ protein capable of interactions with many proteins with its WR domain, Applicant tested whether the WR peptide mimetics could non-specifically recruit random proteins (e.g., fluorescent proteins h6GeGFP and h6GmCherry for convenient visualization). […]
# GATA6 dsDNA = assay: Fluorescence polarization binding measurements; conditions: Hill binding equation, mean±SD
# Text: as §3
# Since 1-3wRRK became soluble and much less aggregation-prone on its own, Applicant determined if the WR repeat (steric zipper region) was affected by changes in physical properties and still contributed towards recognizing DNA. Applicant compared its DNA binding capability to TAT and 1-4wRK by EMSA and fluorescence polarization measurements (FIGS. 9G-9H). Applicant observed that 1-3wRRK binds DNA more effectively than 1-4wRK, mostly likely due to the extra basic residues (FIGS. 8B, 9G, and 9H).
# as §5
# DNA = assay: LLPS turbidity assay (UV absorbance at 350 nm); type: physicochemical
# Experimental: as §3
# The significant 1-3wRK DNA-bridging competency was further confirmed by FCCS titration data and burst analysis, where Applicant observed cross-correlation even at ˜30 nM 1-3wRRK. Applicant next investigated whether the peptides' ability to form nano-assemblies also correlated with their capacity to drive mesoscale condensates. Applicant demarcated the LLPS regimes using turbidity assay (UV absorbance at 350 nm; FIG. 8J). The LLPS data (presented in mg/mL concentration unit in FIG. 8J) reflected the behaviors observed at nanoscale level.
Substance,proximity of separate DNAs [1],cross-correlation of differentially labeled DNAs [2],lowest concentration giving cross-correlation [2],"Kd ([3]; full-length NANOG, for comparison, read-out: dsDNA affinity)","Kd ([3]; fEMSA, read-out: dsDNA affinity (50% free DNA))",peptide concentration giving completely bound peptide:nucleic acid complexes [4],cross-correlation (DNA bridging) ([5]; 0.9 μM peptides),lowest peptide concentration giving cross-correlation ([5]; FCCS titration),peptide concentration giving visible precipitates of fluorescent proteins [6],cooperativity n (GATA6 dsDNA),binding constant Ka (GATA6 dsDNA; n=3),aggregation without DNA (DNA; 0.2 mg/mL peptide),potency in driving DNA:peptide LLPS (DNA; turbidity Abs350 nm>0.07 = LLPS positive)
NANOG WT,≤ 70 Å,significant cross-correlation,~30 nM,30 to 60 nM,,,,,,,,,
WSNQTWNNSTWSNQTQNIQSWSNHSRRRKK [1-4wRK],,,,,~1000 nM,60 to 250 nM,small degree of cross-correlation,1 µM,~0.3 mg/mL,3.3±1.2,340 ± 110 nM,aggregates even without DNA,more effective than TAT at higher concentrations of DNA
